Laboratory results taken from ChEMBL document CHEMBL4808245, “Cytoprotective agent troxipide-cyanine dye conjugate with cytotoxic and antiproliferative activity in patient-derived glioblastoma cell lines” (Bioorg Med Chem Lett, 2021).
Activity calls are given as the source filed them. The rule behind the calls is not given here.

Legend:
GBM [1] = assay: Synergistic cytotoxicity against patient derived human GBM cells assessed as combination index at 125 nM measured after 96 hrs in presence of TMZ by Hoechst staining based analysis; assay type: functional
KNS-42 [2] = assay: Synergistic cytotoxicity against human KNS-42 cells assessed as combination index at 0.2 nM measured after 96 hrs by Hoechst staining based analysis; assay type: functional
U-87 MG [3] = assay: Antagonistic cytotoxicity against human U-87MG cells assessed as combination index at 25 nM measured after 96 hrs in presence of TMZ by Hoechst staining based analysis; assay type: functional, U-87MG ATCC
U-87 MG [4] = assay: Cytotoxicity against human U-87MG cells assessed as reduction in total cell count measured after 96 hrs in presence of TMZ by Hoechst staining analysis; assay type: functional, cell-based, U-87MG ATCC
U-87 MG [5] = assay: Antiproliferative activity against human U-87MG cells assessed as reduction in cell proliferation measured after 48 hrs in presence of TMZ by EdU-incorporation assay; assay type: functional, cell-based, U-87MG ATCC
GBM [6] = assay: Synergistic cytotoxicity against patient derived human GBM cells assessed as combination index at 1 nM measured after 96 hrs in presence of TMZ by Hoechst staining based analysis; assay type: functional
KNS-42 [7] = assay: Cytotoxicity against human KNS-42 cells assessed as reduction in total cell count measured after 96 hrs in presence of TMZ by Hoechst staining based analysis; assay type: functional; settings: KNS-42, 96 h
KNS-42 [8] = assay: Antagonistic cytotoxicity against human KNS-42 cells assessed as combination index at 1 nM measured after 96 hrs in presence of TMZ by Hoechst staining based analysis; assay type: functional
GBM [9] = assay: Synergistic cytotoxicity against patient derived human GBM cells assessed as combination index at 800 nM measured after 96 hrs in presence of TMZ by Hoechst staining based analysis; assay type: functional
GBM [10] = assay: Synergistic cytotoxicity against patient derived human GBM cells assessed as combination index at 0.04 nM measured after 96 hrs in presence of TMZ by Hoechst staining based analysis; assay type: functional
KNS-42 [11] = assay: Synergistic cytotoxicity against human KNS-42 cells assessed as combination index at 100000 nM measured after 96 hrs by Hoechst staining based analysis; assay type: functional
[12] = Selectivity ratio of EC50 for cytotoxicity against primary brain pericytes (unknown origin) to EC50 for cytotoxicity against patient derived human GBM cells
GBM [13] = assay: Induction of apoptosis in patient derived human GBM cells assessed as increase in cleaved caspase-3 positive cells at IC50; assay type: functional, cell-based
KNS-42 [14] = assay: Antiproliferative activity against human KNS-42 cells assessed as reduction in cell proliferation measured after 48 hrs in presence of TMZ by EdU-incorporation assay; assay type: functional, cell-based; settings: KNS-42, 48 h
KNS-42 [15] = assay: Antiproliferative activity against human KNS-42 cells assessed as reduction in cell proliferation measured after 48 hrs by EdU-incorporation assay; assay type: functional, cell-based; settings: KNS-42, 48 h
U-87 MG [16] = assay: Synergistic cytotoxicity against human U-87MG cells assessed as combination index at 5 nM measured after 96 hrs by Hoechst staining based analysis; assay type: functional, U-87MG ATCC
GBM [17] = assay: Antiproliferative activity against patient derived human GBM cells assessed as reduction in cell proliferation measured after 48 hrs in presence of TMZ by EdU-incorporation assay; assay type: functional, cell-based
KNS-42 [18] = assay: Antagonistic cytotoxicity against human KNS-42 cells assessed as combination index at 0.04 nM measured after 96 hrs in presence of TMZ by Hoechst staining based analysis; assay type: functional
U-87 MG [19] = assay: Antiproliferative activity against human U-87MG cells assessed as reduction in cell proliferation measured after 48 hrs by EdU-incorporation assay; assay type: functional, cell-based, U-87MG ATCC
U-87 MG [20] = assay: Synergistic cytotoxicity against human U-87MG cells assessed as combination index at 0.2 nM measured after 96 hrs by Hoechst staining based analysis; assay type: functional, U-87MG ATCC
KNS-42 [21] = assay: Synergistic cytotoxicity against human KNS-42 cells assessed as combination index at 4000 nM measured after 96 hrs by Hoechst staining based analysis; assay type: functional
GBM [22] = assay: Synergistic cytotoxicity against patient derived human GBM cells assessed as combination index at 0.2 nM measured after 96 hrs in presence of TMZ by Hoechst staining based analysis; assay type: functional
KNS-42 [23] = assay: Synergistic cytotoxicity against human KNS-42 cells assessed as combination index at 20000 nM measured after 96 hrs by Hoechst staining based analysis; assay type: functional
GBM [24] = assay: Antiproliferative activity against patient derived human GBM cells assessed as reduction in cell proliferation measured after 48 hrs by EdU-incorporation assay; assay type: functional, cell-based
U-87 MG [25] = assay: Antagonistic cytotoxicity against human U-87MG cells assessed as combination index at 1 nM measured after 96 hrs in presence of TMZ by Hoechst staining based analysis; assay type: functional, U-87MG ATCC
GBM [26] = assay: Cytotoxicity against patient derived human GBM cells assessed as reduction in total cell count measured after 96 hrs by Hoechst staining analysis; assay type: functional, cell-based
GBM [27] = assay: Synergistic cytotoxicity against patient derived human GBM cells assessed as combination index at 100000 nM measured after 96 hrs in presence of TMZ by Hoechst staining based analysis; assay type: functional
U-87 MG [28] = assay: Synergistic cytotoxicity against human U-87MG cells assessed as combination index at 4000 nM measured after 96 hrs by Hoechst staining based analysis; assay type: functional, U-87MG ATCC
KNS-42 [29] = assay: Synergistic cytotoxicity against human KNS-42 cells assessed as combination index at 5 nM measured after 96 hrs by Hoechst staining based analysis; assay type: functional
U-87 MG [30] = assay: Synergistic cytotoxicity against human U-87MG cells assessed as combination index at 125 nM measured after 96 hrs by Hoechst staining based analysis; assay type: functional, U-87MG ATCC
KNS-42 [31] = assay: Cytotoxicity against human KNS-42 cells assessed as reduction in total cell count measured after 96 hrs by Hoechst staining analysis; assay type: functional, cell-based; settings: KNS-42, 96 h
KNS-42 [32] = assay: Antagonistic cytotoxicity against human KNS-42 cells assessed as combination index at 25 nM measured after 96 hrs in presence of TMZ by Hoechst staining based analysis; assay type: functional
U-87 MG [33] = assay: Cytotoxicity against human U-87MG cells assessed as reduction in total cell count measured after 96 hrs by Hoechst staining analysis; assay type: functional, cell-based, U-87MG ATCC
U-87 MG [34] = assay: Synergistic cytotoxicity against human U-87MG cells assessed as combination index at 800 nM measured after 96 hrs by Hoechst staining based analysis; assay type: functional, U-87MG ATCC
U-87 MG [35] = assay: Synergistic cytotoxicity against human U-87MG cells assessed as combination index at 100000 nM measured after 96 hrs by Hoechst staining based analysis; assay type: functional, U-87MG ATCC
GBM [36] = assay: Synergistic cytotoxicity against patient derived human GBM cells assessed as combination index at 25 nM measured after 96 hrs in presence of TMZ by Hoechst staining based analysis; assay type: functional
GBM [37] = assay: Synergistic cytotoxicity against patient derived human GBM cells assessed as combination index at 5 nM measured after 96 hrs in presence of TMZ by Hoechst staining based analysis; assay type: functional
U-87 MG [38] = assay: Antagonistic cytotoxicity against human U-87MG cells assessed as combination index at 0.04 nM measured after 96 hrs in presence of TMZ by Hoechst staining based analysis; assay type: functional, U-87MG ATCC
KNS-42 [39] = assay: Synergistic cytotoxicity against human KNS-42 cells assessed as combination index at 800 nM measured after 96 hrs by Hoechst staining based analysis; assay type: functional
[40] = Cytotoxicity against primary brain pericytes (unknown origin); assay type: cell-based
U-87 MG [41] = assay: Synergistic cytotoxicity against human U-87MG cells assessed as combination index at 20000 nM measured after 96 hrs by Hoechst staining based analysis; assay type: functional, U-87MG ATCC
KNS-42 [42] = assay: Synergistic cytotoxicity against human KNS-42 cells assessed as combination index at 125 nM measured after 96 hrs by Hoechst staining based analysis; assay type: functional
GBM [43] = assay: Synergistic cytotoxicity against patient derived human GBM cells assessed as combination index at 20000 nM measured after 96 hrs in presence of TMZ by Hoechst staining based analysis; assay type: functional
GBM [44] = assay: Synergistic cytotoxicity against patient derived human GBM cells assessed as combination index at 4000 nM measured after 96 hrs in presence of TMZ by Hoechst staining based analysis; assay type: functional
GBM [45] = assay: Cytotoxicity against patient derived human GBM cells assessed as reduction in total cell count measured after 96 hrs in presence of TMZ by Hoechst staining analysis; assay type: functional, cell-based

**Q.** Which CI (GBM [1]) does the source give for `COc1cc(C(=O)NC2CCCN(C(=O)CCCCCN3/C(=C/C=C4\CCCC(/C=C/C5=[N+](CCCCCC(=O)N6CCCC(NC(=O)c7cc(OC)c(OC)c(OC)c7)C6)c6ccccc6C5(C)C)=C4Cl)C(C)(C)c4ccccc43)C2)cc(OC)c1OC.[Br-]` (stereo not given) here?
**A.** Its CI is 0.571.

**Q.** And the CI (KNS-42 [2])?
**A.** Its CI is 0.016.

**Q.** What about the CI (U-87 MG [3]) of the same compound?
**A.** Its CI is 3.837.

**Q.** What about the EC50 (U-87 MG [4]) of the same compound?
**A.** Its EC50 is 108 nM.

**Q.** What about the IC50 (U-87 MG [5]) of the same compound?
**A.** Its IC50 is 194 nM.

**Q.** And the CI (GBM [6])?
**A.** The CI was 0.301.

**Q.** What about the EC50 (KNS-42 [7]) of the same compound?
**A.** The EC50 was 108 nM.

**Q.** What about the CI (KNS-42 [8]) of the same compound?
**A.** Its CI is 3.406.

**Q.** What about the CI (GBM [9]) of the same compound?
**A.** Its CI is 0.287.

**Q.** What about the CI (GBM [10]) of the same compound?
**A.** Its CI is 0.323.

**Q.** What about the CI (KNS-42 [11]) of the same compound?
**A.** Its CI is 0.05.

**Q.** What about the “Ratio EC50” value [12] of the same compound?
**A.** Its value is 19.

**Q.** What about the Activity (GBM [13]) of the same compound?
**A.** Its Activity is “Active”.

**Q.** What about the IC50 (KNS-42 [14]) of the same compound?
**A.** The IC50 was 194 nM.

**Q.** And the IC50 (KNS-42 [15])?
**A.** The IC50 was 504 nM.

**Q.** What about the CI (U-87 MG [16]) of the same compound?
**A.** Its CI is 0.134.

**Q.** And the IC50 (GBM [17])?
**A.** Its IC50 is 110 nM.

**Q.** What about the CI (KNS-42 [18]) of the same compound?
**A.** The CI was 5.672.

**Q.** What about the IC50 (U-87 MG [19]) of the same compound?
**A.** Its IC50 is 504 nM.

**Q.** And the CI (U-87 MG [20])?
**A.** Its CI is 0.016.

**Q.** And the CI (KNS-42 [21])?
**A.** The CI was 0.116.

**Q.** What about the CI (GBM [22]) of the same compound?
**A.** The CI was 0.025.

**Q.** And the CI (KNS-42 [23])?
**A.** Its CI is 0.052.

**Q.** What about the IC50 (GBM [24]) of the same compound?
**A.** Its IC50 is 164 nM.

**Q.** And the CI (U-87 MG [25])?
**A.** The CI was 3.406.

**Q.** What about the EC50 (GBM [26]) of the same compound?
**A.** Its EC50 is 211 nM.

**Q.** And the CI (GBM [27])?
**A.** The CI was 0.248.

**Q.** And the CI (U-87 MG [28])?
**A.** Its CI is 0.116.

**Q.** What about the CI (KNS-42 [29]) of the same compound?
**A.** The CI was 0.134.

**Q.** What about the CI (U-87 MG [30]) of the same compound?
**A.** Its CI is 0.268.

**Q.** And the EC50 (KNS-42 [31])?
**A.** The EC50 was 394 nM.

**Q.** What about the CI (KNS-42 [32]) of the same compound?
**A.** The CI was 3.837.

**Q.** And the EC50 (U-87 MG [33])?
**A.** Its EC50 is 394 nM.

**Q.** What about the CI (U-87 MG [34]) of the same compound?
**A.** Its CI is 0.067.

**Q.** What about the CI (U-87 MG [35]) of the same compound?
**A.** Its CI is 0.05.

**Q.** And the CI (GBM [36])?
**A.** The CI was 0.506.

**Q.** And the CI (GBM [37])?
**A.** The CI was 0.551.

**Q.** And the CI (U-87 MG [38])?
**A.** The CI was 5.672.

**Q.** And the CI (KNS-42 [39])?
**A.** The CI was 0.067.

**Q.** And the EC50 [40]?
**A.** The EC50 was 3600 nM.

**Q.** And the CI (U-87 MG [41])?
**A.** The CI was 0.052.

**Q.** What about the CI (KNS-42 [42]) of the same compound?
**A.** The CI was 0.268.

**Q.** What about the CI (GBM [43]) of the same compound?
**A.** The CI was 0.526.

**Q.** What about the CI (GBM [44]) of the same compound?
**A.** Its CI is 0.536.

**Q.** And the EC50 (GBM [45])?
**A.** Its EC50 is 90 nM.
